Read-outs that look alike come from different tables or passages of the source.
Experiments:
[1] = molecular target: T1, BACE1 (human recombinant β-secretase) (Homo sapiens, UniProt P56817); assay: In vitro BACE1 FRET enzyme assay; assay type: biochemical
Text: (§1) BACE1 (human recombinant β-secretase) ([…]) and the BACE1 FRET (fluorescence resonance energy transfer) assay kit Red were purchased from ThermoFisher Scientific (P2985; Waltham, MA, USA). […] For the cell culture experiment, Dulbecco’s modified Eagle’s medium (DMEM), Opti-MEM, fetal bovine serum (FBS), and penicillin/streptomycin were obtained from Capricorn Scientific (Ebsdorfergrund, Germany). β-secretase inhibitor III (β-SI) was purchased from Calbiochem (Darmstadt, Germany). The protease inhibitor mixture (a mixture of AEBSF, pepstatin A, E-64, bestain, leupeptin, and aprotinin) was purchased from Sigma-Aldrich (St. Louis, MO, USA). Enzyme-linked immunosorbent assay (ELISA) kits for Aβ40 and Aβ42 were obtained from IBL (Kunma, Japan). All chemicals and solvents used were reagent grade, purchased from commercial sources, and used as received.
The BACE1 FRET assay was carried out according to the manufacturer’s instructions with slight modifications as previously described. The assay was performed in a […] black plate using a multi-pipette.

[2] = tested on: SH-SY5Y human neuroblastoma; assay: MTT cytotoxicity assay, SH-SY5Y; assay type: cell-based; conditions: 24 h
Description: (§2) Cytotoxicity was assessed using the MTT assay. Briefly, the cells were seeded into a 96-well plate at a density of 1×10^5 cells per well in 100 µL of corresponding media and incubated at 37 °C in an incubator under 5% CO2 tension for 24 h. The culture media were then replaced with 100 µL of fresh serum-free media in the presence of varied concentrations of pterosin derivatives, and cells were incubated for an additional 24 h. The control was treated with an equal amount of DMSO present in the assay for a 5 mM concentration. Then, 100 µL of MTT solution (0.5 mg/mL in Phosphate Buffered Saline (PBS)) was added to each culture. To measure the proportion of surviving cells, the media were replaced with 100 µL of DMSO 2 h after the administration of MTT solution. The absorbance was measured at 570 nm using a spectrophotometric plate reader (Molecular Devices, Sunnyvale, CA, USA).

[3] = tested on: C6 rat glial cells; assay: MTT cytotoxicity assay, C6; assay type: cell-based; conditions: 24 h
Description: as §2

[4] = tested on: NIH3T3 mouse embryo fibroblasts; assay: MTT cytotoxicity assay, NIH3T3; assay type: cell-based; conditions: 24 h
Description: as §2

[5] = tested on: B16F10 mouse melanoma; assay: MTT cytotoxicity assay, B16F10; assay type: cell-based; conditions: 24 h
Description: as §2

[6] = tested on: SH-SY5Y, C6, NIH3T3 and B16F10 cell lines; assay: MTT cytotoxicity assay, all cell lines tested; assay type: cell-based
Description: as §2

[7] = molecular target: T2, Electric eel AChE (Electrophorus electricus, UniProt O42275); assay: In vitro cholinesterase enzyme assay (Ellman), AChE; assay type: biochemical
T2 construct: purchased Sigma-Aldrich Co
T2 sequence (O42275 24-633): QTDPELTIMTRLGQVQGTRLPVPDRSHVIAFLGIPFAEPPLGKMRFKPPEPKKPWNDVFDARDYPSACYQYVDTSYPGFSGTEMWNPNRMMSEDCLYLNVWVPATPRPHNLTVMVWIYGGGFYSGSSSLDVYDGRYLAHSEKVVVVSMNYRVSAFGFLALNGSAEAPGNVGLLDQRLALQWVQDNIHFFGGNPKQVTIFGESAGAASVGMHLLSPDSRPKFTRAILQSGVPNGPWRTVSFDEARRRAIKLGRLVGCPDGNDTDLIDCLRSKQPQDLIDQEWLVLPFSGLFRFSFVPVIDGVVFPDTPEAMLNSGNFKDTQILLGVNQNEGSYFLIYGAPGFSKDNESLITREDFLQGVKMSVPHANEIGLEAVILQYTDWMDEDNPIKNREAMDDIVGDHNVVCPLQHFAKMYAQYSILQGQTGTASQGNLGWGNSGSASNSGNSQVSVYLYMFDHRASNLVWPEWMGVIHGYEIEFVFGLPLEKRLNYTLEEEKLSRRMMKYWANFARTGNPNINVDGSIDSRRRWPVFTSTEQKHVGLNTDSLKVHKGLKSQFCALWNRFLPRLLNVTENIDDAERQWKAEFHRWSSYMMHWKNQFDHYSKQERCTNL
Text: as §1
(§3) The inhibitory activities of pterosin derivatives against cholinesterases were measured using the method developed by Ellman et al.[32]. The reaction mixture contained 140 μL of sodium phosphate buffer (pH 8.0), 20 μL of test sample solution (final concentration of the compound 100 μM), and 20 μL of AChE or BChE solution, mixed and incubated for 15 min at room temperature. […] The reactions were initiated following the addition of 10 μL of DTNB and 10 μL of acetyl thiocholine iodide for the AChE assay or butyryl thiocholine chloride for the BChE assay in 96-well microplates, which were incubated for 15 min.

[8] = molecular target: T3, horse serum BChE (Equus caballus, UniProt P81908); assay: In vitro cholinesterase enzyme assay (Ellman), BChE; assay type: biochemical
T3 construct: horse serum BChE (EC 3.1.1.8); purchased Sigma-Aldrich Co; host or cells: horse serum
T3 sequence (P81908 whole entry): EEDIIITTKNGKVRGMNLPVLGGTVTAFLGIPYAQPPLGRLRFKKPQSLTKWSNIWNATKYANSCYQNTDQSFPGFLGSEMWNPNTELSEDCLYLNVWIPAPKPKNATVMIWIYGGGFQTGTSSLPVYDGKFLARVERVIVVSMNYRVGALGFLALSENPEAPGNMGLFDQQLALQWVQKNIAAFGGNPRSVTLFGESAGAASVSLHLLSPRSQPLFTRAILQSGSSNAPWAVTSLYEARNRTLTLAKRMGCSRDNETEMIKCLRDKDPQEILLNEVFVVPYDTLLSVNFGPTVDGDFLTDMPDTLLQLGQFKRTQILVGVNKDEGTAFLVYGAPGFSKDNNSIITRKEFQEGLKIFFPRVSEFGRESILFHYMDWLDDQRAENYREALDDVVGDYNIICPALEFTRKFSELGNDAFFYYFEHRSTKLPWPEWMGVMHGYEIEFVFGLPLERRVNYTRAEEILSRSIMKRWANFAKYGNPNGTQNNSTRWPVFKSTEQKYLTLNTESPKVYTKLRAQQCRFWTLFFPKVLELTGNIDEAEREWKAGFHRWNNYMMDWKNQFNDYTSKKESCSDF
Text: as §1, §3

[9] = molecular target: T1, BACE1 (human recombinant β-secretase); assay: Kinetic analysis of BACE1 inhibition (Dixon and Lineweaver−Burk plots); assay type: biochemical; conditions: for Inhibition type BACE1: Dixon and Lineweaver−Burk plots
Description: (§4) The Ki was determined by interpretation of the Dixon plot, with the value of the x-axis intercept taken as −Ki.
Dixon plots for BACE1 inhibition by pterosin derivatives.
Dixon plots for BACE1 inhibition by pteroside derivatives.

[10] = molecular target: T2, Electric eel AChE; assay: Kinetic analysis of AChE inhibition (Dixon and Lineweaver−Burk plots); assay type: biochemical; conditions: for Inhibition type AChE: Dixon and Lineweaver−Burk plots
Description: as §4
Dixon plots for AChE inhibition by pterosin derivatives. (2S,3R)-Pterosin C (A), (2R,3R)-pterosin C (B), and (2R)-pterosin B (C) were tested in the presence of substrate concentrations of 0.1 mM (●), 0.3 mM (○), and 0.6 mM (▼). Lineweaver-Burk plots for AChE inhibition were generated with inhibitor concentrations of 0 µM (Δ), 4 µM (▼), 20 µM (○), and 100 µM (●) for (2S,3R)-pterosin C (D) and (2R,3R)-pterosin C (E); and 0 µM (Δ), 2 µM (▼), 10 µM (○), and 50 µM (●) for (2R)-pterosin B (F).
Dixon plots for AChE inhibition by pteroside derivatives. (2R)-pteroside B (A), (2R,3R)-pteroside C (B), and (3S)-pteroside D (C) were tested in the presence of substrate concentrations of 0.1 mM (●), 0.3 mM (○), and 0.6 mM (▼). Lineweaver-Burk plots for AChE inhibition were generated with inhibitor concentrations of 0 µM (Δ), 0.8 µM (▼), 4 µM (○), and 20 µM (●) for (2R)-pteroside B (D), (2R,3R)-pteroside C (E), and (3S)-pteroside D (F).

[11] = molecular target: T3, horse serum BChE; assay: Kinetic analysis of BChE inhibition (Dixon and Lineweaver−Burk plots); assay type: biochemical; conditions: for Inhibition type BChE: Dixon and Lineweaver−Burk plots
Description: as §4
Dixon plots for BChE inhibition by pterosin derivatives. (2S,3R)-Pterosin C (A), (2R,3R)-pterosin C (B), and (2R)-pterosin B (C) were tested in the presence of substrate concentrations of 0.2 mM (●), 0.4 mM (○), and 0.8 mM (▼).
Dixon plots for BChE inhibition by pteroside derivatives. (2R)-pteroside B (A), (2R,3R)-pteroside C (B), and (3S)-pteroside D (C) were tested in the presence of substrate concentrations of 0.2 mM (●), 0.4 mM (○), and 0.8 mM (▼). Lineweaver-Burk plots for BChE inhibition were generated with inhibitor concentrations of 0 µM (Δ), 4 µM (▼), 20 µM (○), and 100 µM (●) for (2R)-pteroside B (D); 0 µM (Δ), 0.8 µM (▼), 4 µM (○), and 20 µM (●) for (2R,3R)-pteroside C (E) and (3S)-pteroside D (F).

[12] = in vitro; assay type: in vitro ADME; conditions: for Papp at 4 h, 25 µg/mL: pig, PAMPA, read-out: PAMPA-BBB permeability Pe
Description: PAMPA (parallel artificial membrane permeation assay) was used as a high-throughput assay to predict BBB permeation. Porcine polar brain lipid (PBL) was used as an artificial membrane to predict BBB permeation. Initially, the test compound was dissolved in DMSO at 5 mg/mL. This compound stock solution (10 µL) was diluted 200-fold in a universal buffer at pH 7.4 and mixed with a multi 8-channel pipette to obtain the secondary stock solution (final concentration 25 µg/mL). The secondary stock solution (200 µL) was placed in the donor wells. The filter membrane was coated with PBL in dodecane (4 mL volume of 20 mg/mL PBL in dodecane), and 5 µL of BBB-1 lipid solution was spread on PBL by pipette. The acceptor well was filled with […] of Acceptor Sink Buffer. The acceptor filter plate was cautiously positioned on the donor plate to assemble a “sandwich” (comprising an aqueous acceptor, artificial lipid membrane and aqueous donor with test compound on the top, middle and bottom, respectively). The test compound diffuses from the donor well to the acceptor well through the lipid membrane. After 4 h of incubation at pH 7.4 and 25 °C, the concentration of the compound in the acceptor, donor, reference and blank wells was estimated with a UV plate reader, Epoch Microplate Spectrophotometer (BioTek Instruments, Inc., Winooski, VT, USA). […] Samples were analyzed in quadruplets, and the average of the four runs was reported. To monitor the consistency of the analysis set, quality control standards were run with each sample set.
PAMPA-BBB, an in vitro artificial membrane permeability assay for the BBB, is one of the most reliable physicochemical screening tools in the early stage discovery of CNS-targeted drugs. The PAMPA-BBB system models the transcellular passive diffusion of chemicals across the BBB and measures strictly passive transport mechanisms via an artificial lipid membrane on effective permeability (Pe, cm/s).

[13] = tested on: AChE; conditions: cited from earlier work
[14] = tested on: BChE; parameters: method as in PMID 18274286; conditions: cited from earlier work
[15] = parameters: method as in PMID 23565574; conditions: PAMPA-BBB ref 49; cited from earlier work
[16] = tested on: aged triple transgenic mouse models of AD (3xTg-AD); conditions: 25 mg/kg i.p. every 48 h for 3 months, mice 21–24 months old ref 48; cited from earlier work
[17] = mean ± S.D. of three experiments
[18] = mean ± S.D. of three experiments, read-out: IC50 AChE
[19] = mean ± S.D. of three experiments, read-out: IC50 BChE

T1 sequence (P56817 46-501): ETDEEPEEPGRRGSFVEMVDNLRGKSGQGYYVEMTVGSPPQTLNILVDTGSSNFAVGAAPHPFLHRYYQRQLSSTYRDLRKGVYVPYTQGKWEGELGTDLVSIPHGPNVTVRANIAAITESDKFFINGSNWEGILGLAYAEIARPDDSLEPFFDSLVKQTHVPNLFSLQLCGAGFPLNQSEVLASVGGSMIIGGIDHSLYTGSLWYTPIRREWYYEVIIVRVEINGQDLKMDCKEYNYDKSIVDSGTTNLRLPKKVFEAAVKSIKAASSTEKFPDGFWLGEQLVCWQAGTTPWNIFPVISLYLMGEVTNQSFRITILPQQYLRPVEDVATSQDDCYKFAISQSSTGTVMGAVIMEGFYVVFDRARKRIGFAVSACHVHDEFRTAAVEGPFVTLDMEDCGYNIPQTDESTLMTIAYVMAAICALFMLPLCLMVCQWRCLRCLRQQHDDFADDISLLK

Compound | IC50 [1, 17] | LD50 Based on MTT Assay, SY-SY5Y [2] | LD50 Based on MTT Assay, C6 [3] | LD50 Based on MTT Assay, NIH3T3 [4] | LD50 Based on MTT Assay, B16F10 [5] | LD50, cell lines tested [6] | IC50 [7, 18] | IC50 [8, 19] | Inhibition type BACE1 [9] | Inhibition type AChE [10] | Inhibition type BChE [11] | other results
Cc1cc2c(c(C)c1CCOC1OC(CO)C(O)C(O)C1O)C(=O)C(C)(CO)C2 [(2S)-Pteroside A, (2S)-pteroside A] | 84.6 ± 6 µM | >5,000 µM | >5,000 µM | >5,000 µM | >5,000 µM | above 5 mM |  |  |  |  |  | 
Cc1cc2c(c(C)c1CCO)C(=O)C(C)(C)C2O (stereo in doubt) [(3R)-Pterosin D, (3R)-pterosin D] | 92.5 ± 7 µM | >5,000 µM | >5,000 µM | >5,000 µM | >5,000 µM | above 5 mM | 68.7 ± 3.7 µM | > 125 µM |  |  |  | IC50 BChE [8, 17]: inactive at the concentrations tested
Cc1cc2c(c(C)c1CCOC1OC(CO)C(O)C(O)C1O)C(=O)C(C)C2 [(2R)-Pteroside B, (2R)-pteroside B] | 18 ± 2.8 µM | >5,000 µM | >5,000 µM | >5,000 µM | >5,000 µM | above 5 mM | 2.55 ± 0.23 µM | 62 ± 0.71 µM | Noncompetitive | Mixed-type | Mixed-type | Ki ([9]; determined by Dixon plot, read-out: Ki BACE1): 23.1 µM; Ki ([10]; determined by Dixon plot, read-out: Ki AChE): 4.89 µM; Ki ([11]; determined by Dixon plot, read-out: Ki BChE): 22.6 µM; BBB permeation class ([12]; PAMPA-BBB, classified by Pe, given in words): very low BBB permeability; Papp at 4 h, 25 µg/mL ([12]; 4 h, pH 7.4, 25 °C, mean ± SD of quadruple experiments): 4.8 ± 2.9 nm/s
O=c1c(O)c(-c2ccc(O)c(O)c2)oc2cc(O)cc(O)c12 [Quercetin, quercetin] |  |  |  |  |  |  |  |  |  |  |  | IC50 [13]: […]; Influence on BChE activity [14]: negligible influence; log Pe [15]: approximately −7; Effect on AD pathology [16]: effectively ameliorated AD pathology and tauopathy
Cc1cc2c(c(C)c1CCO)C(=O)[C@@H](C)[C@H]2O [(2S,3R)-Pterosin C, (2S,3R)-pterosin C] |  | 2,940 ± 260 µM | >5,000 µM | >5,000 µM | >5,000 µM |  |  |  | Noncompetitive | Mixed-type | Noncompetitive | IC50 [1]: 23.1 ± 2.9 µM; IC50 [7]: 12.8 ± 0.79 µM; IC50 [8]: 44.3 ± 1 µM; Ki [9]: 33.8 µM; Ki [10]: 16.3 µM; Ki [11]: 29.9 µM; log Pe [12]: -5.65; Papp at 4 h, 25 µg/mL ([12]; pH 7.4): 23.4 ± 8.1 nm/s
